For experiment [1], the target named is T1, CpcA (phycocyanin alpha-subunit) (Thermostichus vulcanus, UniProt Q9AM02).
T1 construct: native phycocyanin rod dissociated from intact phycobilisomes; two PC hexamers with linkers CpcC, CpcD, CpcG; with C-phycocyanin beta subunit
The experiment in a line: cryo-EM structure, […] Å. As to conditions: covalent thioether to Cys84 of CpcA. In kind it is binding.

Experiment [2] addresses T2, CpcB (phycocyanin beta-subunit) (Thermostichus vulcanus, UniProt Q71RW8).
T2 construct: native phycocyanin rod dissociated from intact phycobilisomes; two PC hexamers with linkers CpcC, CpcD, CpcG; with C-phycocyanin alpha subunit
The experiment can be described thus: cryo-EM structure, […] Å. As to conditions: covalent thioether to Cys84 and Cys155 of CpcB. The experiment is classed as binding.

For `CC=C1C(=Cc2[nH]c(C=C3N=C(C=C4NC(=O)C(CC)=C4C)C(C)=C3CCC(=O)O)c(CCC(=O)O)c2C)NC(=O)[C@@H]1C` [phycocyanobilin], the “cryo-EM structure, 4.2 Å” value in experiment [1] and in experiment [2] was “Arrangement of chromophores in the PC rod” throughout.

Source of the values: article PMC9205905, “Core and rod structures of a thermophilic cyanobacterial light-harvesting phycobilisome” (Nature Communications, 2022).
